Numbered stars: 1 amine (or outer) side, 2 acyl side, 3 side chain; on linkers, the order of the positions; unused ones are H or OH. Bridge positions count the residues as written; N and C are the ends. Square brackets hold non-standard residues; d marks the D form. Peptide text beside a SMILES is read from it. * marks the point of attachment. Trp(1-CH2CO2Me) = COC(=O)Cn1cc(C[C@H](N)C(=O)O)c2ccccc21; Trp(1-CH2COOH) = N[C@@H](Cc1cn(CC(=O)O)c2ccccc12)C(=O)O; X5 = CN(C)S(=O)(=O)NCC[C@H](N[*:1])C(=O)[*:2]; X4 = CN(C)S(=O)(=O)NC[C@H](N[*:1])C(=O)[*:2]; X15 = CCNC(=S)NCC[C@H](N[*:1])C(=O)[*:2]; X14 = CCNC(=S)NC[C@H](N[*:1])C(=O)[*:2]; Dab(CONH2) = NC(=O)NCC[C@H](N)C(=O)O; X9 = N#CNCC[C@H](N[*:1])C(=O)[*:2]; X8 = N#CNC[C@H](N[*:1])C(=O)[*:2]; Hyp = O=C(O)[C@@H]1C[C@@H](O)CN1; NMeNle = CCCC[C@H](NC)C(=O)O; NMeA = CN[C@@H](C)C(=O)O; Dab = NCC[C@H](N)C(=O)O; Dap = NC[C@H](N)C(=O)O; Boc = CC(C)(C)OC(=O)*; X10 = CC(C)(C)SC(=O)*; Moc = COC(=O)*
Molecular target: T1, PD-1/PD-L1 (Homo sapiens, UniProt Q9NZQ7)
T1 construct: TVMV protease site linker (C); made in house; host or cells: HEK293T cells
Assay: PD-1/PD-L1 Homogenous Time-Resolved Fluorescence (HTRF) binding assay
Conditions: PD-L1-His 10 nM final, PD-1-Ig 20 nM final; inhibitors pre-incubated with PD-L1-His for 15 m
Text: The ability of the compounds of formula (I) to bind to PD-L1 was investigated using a PD-1/PD-L1 Homogenous Time-Resolved Fluorescence (HTRF) binding assay.
The interaction of PD-1 and PD-L1 can be assessed using soluble, purified preparations of the extracellular domains of the two proteins. The PD-1 and PD-L1 protein extracellular domains were expressed as fusion proteins with detection tags, for PD-1, the tag was the Fc portion of Immunoglobulin (PD-1-Ig) and for PD-L1 it was the 6 histidine motif (PD-L1-His). All binding studies were performed in an HTRF assay buffer consisting of dPBS supplemented with 0.1% […] bovine serum albumin and 0.05% (v/v) Tween-20. For the h/PD-L1-His binding assay, inhibitors were pre-incubated with PD-L1-His (10 nM final) for 15 m in 4 μl of assay buffer, followed by addition of PD-1-Ig (20 nM final) in 1 μl of assay buffer and further incubation for 15 m. HTRF detection was achieved using europium cryptate-labeled anti-Ig (1 nM final) and allophycocyanin (APC) labeled anti-His (20 nM final). Antibodies were diluted in HTRF detection buffer and 5 μl was dispensed on top of the binding reaction. The reaction mixture was allowed to equilibrate for 30 minutes and the resulting signal (665 nm/620 nm ratio) was obtained using an EnVision fluorometer. Additional binding assays were established between the human proteins PD-1-Ig/PD-L2-His (20 & 5 nM, respectively) and CD80-His/PD-L1-Ig (100 & 10 nM, respectively).
Recombinant Proteins: Human PD-1 (25-167) with a C-terminal human Fc domain of immunoglobulin G (Ig) epitope tag [hPD-1 (25-167)-3S-IG] and human PD-L1 (18-239) with a C-terminal His epitope tag [hPD-L1(18-239)-TVMV-His] were expressed in HEK293T cells and purified sequentially by Protein A affinity chromatography and size exclusion chromatography. Human PD-L2-His and CD80-His was obtained through commercial sources.
Table 3 lists the IC50 values for representative examples of this disclosure measured in the PD-1/PD-L1 Homogenous Time-Resolved Fluorescence (HTRF) binding assay.

| IC50 [nM] | SMILES |
| --- | --- |
| 5.9 | CCCC[C@H]1C(=O)N(C)[C@@H](CCCC)C(=O)N[C@@H](CC(C)C)C(=O)N[C@H](C(=O)NCC(N)=O)CSCC(=O)N[C@@H](Cc2ccc(O)cc2)C(=O)N(C)[C@@H](C)C(=O)N[C@@H](CC(N)=O)C(=O)N2CCC[C@H]2C(=O)N[C@@H](CNC(=O)OC)C(=O)N[C@@H](CC(C)C)C(=O)N2C[C@H](O)C[C@H]2C(=O)N[C@@H](Cc2c[nH]c3ccccc23)C(=O)N[C@@H](CCNC(=O)OC)C(=O)N[C@@H](Cc2cn(CC(=O)OC)c3ccccc23)C(=O)N1C [Example 1017] ({CH2CO}-Y[NMeA]NP[Dap](Moc)L[Hyp]W[Dab](Moc)[Trp(1-CH2CO2Me)][NMeNle][NMeNle]LCG-NH2; thioether N-14) |
| 2.9 | CCCC[C@H]1C(=O)N(C)[C@@H](CCCC)C(=O)N[C@@H](CC(C)C)C(=O)N[C@H](C(=O)NCC(N)=O)CSCC(=O)N[C@@H](Cc2ccc(O)cc2)C(=O)N(C)[C@@H](C)C(=O)N[C@@H](CC(N)=O)C(=O)N2CCC[C@H]2C(=O)N[C@@H](CNC(=O)OC(C)(C)C)C(=O)N[C@@H](CC(C)C)C(=O)N2C[C@H](O)C[C@H]2C(=O)N[C@@H](Cc2c[nH]c3ccccc23)C(=O)N[C@@H](CCNC(N)=O)C(=O)N[C@@H](Cc2cn(CC(=O)O)c3ccccc23)C(=O)N1C [Example 1018] ({CH2CO}-Y[NMeA]NP[Dap](Boc)L[Hyp]W[Dab(CONH2)][Trp(1-CH2COOH)][NMeNle][NMeNle]LCG-NH2; thioether N-14) |
| 1.2 | CCCC[C@H]1C(=O)N(C)[C@@H](CCCC)C(=O)N[C@@H](CC(C)C)C(=O)N[C@H](C(=O)NCC(N)=O)CSCC(=O)N[C@@H](Cc2ccc(O)cc2)C(=O)N(C)[C@@H](C)C(=O)N[C@@H](CC(N)=O)C(=O)N2CCC[C@H]2C(=O)N[C@@H](CNC#N)C(=O)N[C@@H](CC(C)C)C(=O)N2C[C@H](O)C[C@H]2C(=O)N[C@@H](Cc2c[nH]c3ccccc23)C(=O)N[C@@H](CCNC#N)C(=O)N[C@@H](Cc2cn(CC(=O)O)c3ccccc23)C(=O)N1C [Example 1019] ({CH2CO}-Y[NMeA]NP[X8]L[Hyp]W[X9][Trp(1-CH2COOH)][NMeNle][NMeNle]LCG-NH2; thioether N-14) |
| 7.1 | CCCC[C@H]1C(=O)N(C)[C@@H](CCCC)C(=O)N[C@@H](CC(C)C)C(=O)N[C@H](C(=O)NCC(N)=O)CSCC(=O)N[C@@H](Cc2ccc(O)cc2)C(=O)N(C)[C@@H](C)C(=O)N[C@@H](CC(N)=O)C(=O)N2CCC[C@H]2C(=O)N[C@@H](CNC#N)C(=O)N[C@@H](CC(C)C)C(=O)N2C[C@H](O)C[C@H]2C(=O)N[C@@H](Cc2c[nH]c3ccccc23)C(=O)N[C@@H](CCNC#N)C(=O)N[C@@H](Cc2cn(CC(=O)OC)c3ccccc23)C(=O)N1C [Example 1020] ({CH2CO}-Y[NMeA]NP[X8]L[Hyp]W[X9][Trp(1-CH2CO2Me)][NMeNle][NMeNle]LCG-NH2; thioether N-14) |
| 52 | CCCC[C@H]1C(=O)N(C)[C@@H](CCCC)C(=O)N[C@@H](CC(C)C)C(=O)N[C@H](C(=O)NCC(N)=O)CSCC(=O)N[C@@H](Cc2ccc(O)cc2)C(=O)N(C)[C@@H](C)C(=O)N[C@@H](CC(N)=O)C(=O)N2CCC[C@H]2C(=O)N[C@@H](CNC#N)C(=O)N[C@@H](CC(C)C)C(=O)N2C[C@H](O)C[C@H]2C(=O)N[C@@H](Cc2c[nH]c3ccccc23)C(=O)N[C@@H](CCN)C(=O)N[C@@H](Cc2cn(CC(=O)O)c3ccccc23)C(=O)N1C [Example 1021] ({CH2CO}-Y[NMeA]NP[X8]L[Hyp]W[Dab][Trp(1-CH2COOH)][NMeNle][NMeNle]LCG-NH2; thioether N-14) |
| 15 | CCCC[C@H]1C(=O)N(C)[C@@H](CCCC)C(=O)N[C@@H](CC(C)C)C(=O)N[C@H](C(=O)NCC(N)=O)CSCC(=O)N[C@@H](Cc2ccc(O)cc2)C(=O)N(C)[C@@H](C)C(=O)N[C@@H](CC(N)=O)C(=O)N2CCC[C@H]2C(=O)N[C@@H](CNS(=O)(=O)N(C)C)C(=O)N[C@@H](CC(C)C)C(=O)N2C[C@H](O)C[C@H]2C(=O)N[C@@H](Cc2c[nH]c3ccccc23)C(=O)N[C@@H](CCNS(=O)(=O)N(C)C)C(=O)N[C@@H](Cc2cn(CC(=O)O)c3ccccc23)C(=O)N1C [Example 1022] ({CH2CO}-Y[NMeA]NP[X4]L[Hyp]W[X5][Trp(1-CH2COOH)][NMeNle][NMeNle]LCG-NH2; thioether N-14) |
| 6.8 | CCCC[C@H]1C(=O)N(C)[C@@H](CCCC)C(=O)N[C@@H](CC(C)C)C(=O)N[C@H](C(=O)NCC(N)=O)CSCC(=O)N[C@@H](Cc2ccc(O)cc2)C(=O)N(C)[C@@H](C)C(=O)N[C@@H](CC(N)=O)C(=O)N2CCC[C@H]2C(=O)N[C@@H](CNS(=O)(=O)N(C)C)C(=O)N[C@@H](CC(C)C)C(=O)N2C[C@H](O)C[C@H]2C(=O)N[C@@H](Cc2c[nH]c3ccccc23)C(=O)N[C@@H](CCN)C(=O)N[C@@H](Cc2cn(CC(=O)O)c3ccccc23)C(=O)N1C [Example 1023] ({CH2CO}-Y[NMeA]NP[X4]L[Hyp]W[Dab][Trp(1-CH2COOH)][NMeNle][NMeNle]LCG-NH2; thioether N-14) |
| 4.7 | CCCC[C@H]1C(=O)N(C)[C@@H](CCCC)C(=O)N[C@@H](CC(C)C)C(=O)N[C@H](C(=O)NCC(N)=O)CSCC(=O)N[C@@H](Cc2ccc(O)cc2)C(=O)N(C)[C@@H](C)C(=O)N[C@@H](CC(N)=O)C(=O)N2CCC[C@H]2C(=O)N[C@@H](CNC(=O)SC(C)(C)C)C(=O)N[C@@H](CC(C)C)C(=O)N2C[C@H](O)C[C@H]2C(=O)N[C@@H](Cc2c[nH]c3ccccc23)C(=O)N[C@@H](CCNC(=O)OC)C(=O)N[C@@H](Cc2cn(CC(=O)O)c3ccccc23)C(=O)N1C [Example 1024] ({CH2CO}-Y[NMeA]NP[Dap](X10)L[Hyp]W[Dab](Moc)[Trp(1-CH2COOH)][NMeNle][NMeNle]LCG-NH2; thioether N-14) |
| 6 | CCCC[C@H]1C(=O)N(C)[C@@H](CCCC)C(=O)N[C@@H](CC(C)C)C(=O)N[C@H](C(=O)NCC(N)=O)CSCC(=O)N[C@@H](Cc2ccc(O)cc2)C(=O)N(C)[C@@H](C)C(=O)N[C@@H](CC(N)=O)C(=O)N2CCC[C@H]2C(=O)N[C@@H](CNC(=O)SC(C)(C)C)C(=O)N[C@@H](CC(C)C)C(=O)N2C[C@H](O)C[C@H]2C(=O)N[C@@H](Cc2c[nH]c3ccccc23)C(=O)N[C@@H](CCNC(=O)SC(C)(C)C)C(=O)N[C@@H](Cc2cn(CC(=O)OC)c3ccccc23)C(=O)N1C [Example 1025] ({CH2CO}-Y[NMeA]NP[Dap](X10)L[Hyp]W[Dab](X10)[Trp(1-CH2CO2Me)][NMeNle][NMeNle]LCG-NH2; thioether N-14) |
| 4.5 | CCCC[C@H]1C(=O)N(C)[C@@H](CCCC)C(=O)N[C@@H](CC(C)C)C(=O)N[C@H](C(=O)NCC(N)=O)CSCC(=O)N[C@@H](Cc2ccc(O)cc2)C(=O)N(C)[C@@H](C)C(=O)N[C@@H](CC(N)=O)C(=O)N2CCC[C@H]2C(=O)N[C@@H](CNC(=S)NCC)C(=O)N[C@@H](CC(C)C)C(=O)N2C[C@H](O)C[C@H]2C(=O)N[C@@H](Cc2c[nH]c3ccccc23)C(=O)N[C@@H](CCNC(=S)NCC)C(=O)N[C@@H](Cc2cn(CC(=O)O)c3ccccc23)C(=O)N1C [Example 1026] ({CH2CO}-Y[NMeA]NP[X14]L[Hyp]W[X15][Trp(1-CH2COOH)][NMeNle][NMeNle]LCG-NH2; thioether N-14) |

From patent US20220251141A1, “IMMUNOMODULATORS” (Bristol-Myers Squibb Company, priority 2019, published 2022)
